Assay results: PubChem BioAssay (NCI)
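These data come from cells grown in 96-well plates and exposed to compound for 48 hours at five concentrations. The concentration for 50% growth inhibition is given as GI50. The concentration for full growth arrest is given as TGI.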

Legend:
Assay in all cases: DTP human tumour cell line panel, 48 h
OVCAR-5 ovarian = tested on: OVCAR-5 ovarian
HCT-116 colon = tested on: HCT-116 colon
LOX IMVI melanoma = tested on: LOX IMVI melanoma
MDA-MB-435 = tested on: MDA-MB-435
NCI-H23 lung = tested on: NCI-H23 lung
NCI-H460 lung = tested on: NCI-H460 lung
COLO 205 colon = tested on: COLO 205 colon
BT-549 breast = tested on: BT-549 breast
ACHN renal = tested on: ACHN renal
CAKI-1 renal = tested on: CAKI-1 renal
SK-OV-3 ovarian = tested on: SK-OV-3 ovarian
NCI-H522 lung = tested on: NCI-H522 lung
SNB-19 CNS = tested on: SNB-19 CNS
HL-60(TB) leukemia = tested on: HL-60(TB) leukemia
MOLT-4 leukemia = tested on: MOLT-4 leukemia
HOP-62 NSCLC = tested on: HOP-62 NSCLC
SK-MEL-28 melanoma = tested on: SK-MEL-28 melanoma
HT29 colon = tested on: HT29 colon
NCI-H226 lung = tested on: NCI-H226 lung
MCF7 breast = tested on: MCF7 breast
HOP-92 NSCLC = tested on: HOP-92 NSCLC
A498 renal = tested on: A498 renal
UACC-257 melanoma = tested on: UACC-257 melanoma
K-562 leukemia = tested on: K-562 leukemia
SR leukemia = tested on: SR leukemia
DU-145 prostate = tested on: DU-145 prostate
SF-539 CNS = tested on: SF-539 CNS
PC-3 prostate = tested on: PC-3 prostate

In the case of `O=C1NC(=S)/C(=C/c2cn(-c3ccccc3)nc2-c2ccccc2)S1`, the GI50 (OVCAR-5 ovarian) is reported as 22 µM, the TGI (OVCAR-5 ovarian) is reported as over 100 µM and the GI50 (HCT-116 colon) is reported as 5.57 µM. For the same molecule, the TGI (HCT-116 colon) was over 100 µM, the GI50 (LOX IMVI melanoma) was 13.4 µM and the TGI (LOX IMVI melanoma) was over 100 µM. The GI50 (MDA-MB-435) was 5.49 µM, the TGI (MDA-MB-435) was over 100 µM and the GI50 (NCI-H23 lung) was 4.86 µM. For the same molecule, the TGI (NCI-H23 lung) was 51.6 µM, the GI50 (NCI-H460 lung) was 4.89 µM and the TGI (NCI-H460 lung) was 26.2 µM. For the same molecule, the GI50 (COLO 205 colon) was 11.9 µM, the TGI (COLO 205 colon) was 32 µM and the GI50 (BT-549 breast) was 2.65 µM. It also gave a TGI (BT-549 breast) of 11.3 µM, a GI50 (ACHN renal) of 8.33 µM and a TGI (ACHN renal) of over 100 µM. It also gave a GI50 (CAKI-1 renal) of 9.4 µM, a TGI (CAKI-1 renal) of over 100 µM and a GI50 (SK-OV-3 ovarian) of 6.82 µM. It also gave a TGI (SK-OV-3 ovarian) of 81.2 µM, a GI50 (NCI-H522 lung) of 4.39 µM and a TGI (NCI-H522 lung) of 19.3 µM. For the same molecule, the GI50 (SNB-19 CNS) was 4.91 µM, the TGI (SNB-19 CNS) was over 100 µM and the GI50 (HL-60(TB) leukemia) was 3.94 µM. It also gave a TGI (HL-60(TB) leukemia) of 36.6 µM, a GI50 (MOLT-4 leukemia) of 3.91 µM and a TGI (MOLT-4 leukemia) of 34.4 µM. The GI50 (HOP-62 NSCLC) was 22.8 µM, the TGI (HOP-62 NSCLC) was over 100 µM and the GI50 (SK-MEL-28 melanoma) was 5.31 µM. The TGI (SK-MEL-28 melanoma) was over 100 µM, the GI50 (HT29 colon) was 9.99 µM and the TGI (HT29 colon) was 37.1 µM. For the same molecule, the GI50 (NCI-H226 lung) was 13.4 µM, the TGI (NCI-H226 lung) was over 100 µM and the GI50 (MCF7 breast) was 4.03 µM. It also gave a TGI (MCF7 breast) of over 100 µM, a GI50 (HOP-92 NSCLC) of 2.3 µM and a TGI (HOP-92 NSCLC) of 9.73 µM. It also gave a GI50 (A498 renal) of 5.6 µM, a TGI (A498 renal) of 41.3 µM and a GI50 (UACC-257 melanoma) of 6.36 µM. The TGI (UACC-257 melanoma) was over 100 µM, the GI50 (K-562 leukemia) was 5.38 µM and the TGI (K-562 leukemia) was over 100 µM. It also gave a GI50 (SR leukemia) of 6.65 µM, a TGI (SR leukemia) of 32.3 µM and a GI50 (DU-145 prostate) of 9.48 µM. It also gave a TGI (DU-145 prostate) of over 100 µM, a GI50 (SF-539 CNS) of 6.5 µM and a TGI (SF-539 CNS) of 21.8 µM. The GI50 (PC-3 prostate) was 5.76 µM.
